Measurements as given in article PMC9959349, “Discovery of the 3-Amino-1,2,4-triazine-Based Library as Selective PDK1 Inhibitors with Therapeutic Potential in Highly Aggressive Pancreatic Ductal Adenocarcinoma” (International Journal of Molecular Sciences, 2023).
Where two headings read alike, the source gives them in different places.

Assays:
[1] = test system: PSN-1 cells; assay: Mitochondrial membrane potential (Mito-ID kit); assay type: cell-based, human; conditions: IC50 concentrations
Protocol: The ΔΨ was assayed using the Mito-ID® Membrane Potential Kit according to the manufacturer’s instructions (Enzo Life Sciences, Farmingdale, NY, USA) as previously described. Briefly, PSN-1 cells (8 × 10^3 per well) were seeded in 96-well plates; after 24 h, cells were washed with PBS and loaded with Mito-ID Detection Reagent for 30 min at 37 °C in the dark. Afterward, cells were incubated with tested compounds for 60 min. CCCP (Carbonyl cyanide 3-chlorophenyl-hydrazone) was used as the positive control. Fluorescence intensity was estimated using a VICTOR X3 (PerkinElmer, Waltham, MA, USA) plate reader at 490 (excitation) and 590 nm (emission).

[2] = target: recombinant human HSP90 (Homo sapiens, UniProt P07900); assay: HSP90 inhibition assay (Transcreener ADP kit); assay type: biochemical; conditions: for decrease of HSP90 catalytic activity: 1.5 µM compound (equivalent doses)
Protocol: The in vitro inhibitory activity of tested compounds on recombinant human HSP90 was assessed by The Transcreener™ ADP kit (Bellbrook Labs) according to the manufacturer’s protocol. Human recombinant HSP90 protein was incubated with tested compounds in the presence of 250 μM ATP at 37 °C for 30 min, 4°C for 30 min and ATPase activity was stopped via the addition of the stop and detect buffer. Following this, samples were incubated for 1 h at room temperature with the ADP2 Antibody and the ADP Alexa594 Tracer. The fluorescence intensity polarization of samples was measured with a Tecan plate reader (Tecan Infinite® M200). The evaluation was based on means from at least three independent experiments.

[3] = test system: S232 PDH E1 alpha protein (PDHA1) phosphorylation in PSN-1 cells; assay: Cellular PDH phosphorylation (ELISA); assay type: cell-based, human; conditions: 24 h, IC50 concentrations
Protocol: As a first step, the ability of representative derivatives to target PDK in intact cancer cells was assessed by evaluating their effect on PDH phosphorylation of PSN-1 cancer cells.
PSN-1 cells (2 × 10^5) were seeded in a six-well plate in growth medium (4 mL). After 24 h, cells were incubated for 24 h with IC50 concentrations of tested compounds. Subsequently, the phosphorylation level of S232 PDH E1 alpha protein (PDHA1) was assessed by ELISA Kit (Abcam) following the manufacturer’s instructions. The amount of phosphorylated S232 PDHA1 protein was detected by measuring the absorbance of each well at 600 nm, using a Bio-Rad 680 microplate reader.

[4] = target: recombinant human PDK1 (Homo sapiens, UniProt Q15118); assay: ADP-Glo kinase assay, PDK1; conditions: for effect on enzymatic activity of PDK1: 1.5 µM compound, 30 min preincubation
recombinant human PDK1, sequence (Q15118 29-436): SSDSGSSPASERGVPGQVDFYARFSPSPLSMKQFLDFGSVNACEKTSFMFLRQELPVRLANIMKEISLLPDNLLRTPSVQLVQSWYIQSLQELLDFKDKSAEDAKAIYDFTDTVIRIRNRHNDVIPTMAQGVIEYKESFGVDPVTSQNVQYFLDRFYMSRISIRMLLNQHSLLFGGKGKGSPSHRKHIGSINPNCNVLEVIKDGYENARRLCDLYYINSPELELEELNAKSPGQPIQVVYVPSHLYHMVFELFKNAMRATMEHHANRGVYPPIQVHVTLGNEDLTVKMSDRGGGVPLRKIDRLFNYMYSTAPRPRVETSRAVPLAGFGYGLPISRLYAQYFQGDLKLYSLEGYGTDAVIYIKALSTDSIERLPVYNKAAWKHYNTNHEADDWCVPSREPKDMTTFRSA
Protocol: (§4) The ability of tested compounds to inhibit the activity of PDK 1–4 isoforms was primarily assessed in cell-free experiments by a chemioluminescent assay, the ADPGlo™ Kinase Assay kit from Promega (Promega Corporation, Madison, WI, USA).
(§5) The in vitro inhibitory activity of tested compounds on recombinant human PDK1-4 isoforms (Abcam, Cambridge, MA, USA) was evaluated by using the ADPGlo™ Kinase Assay kit from Promega (Promega Corporation, Madison, WI, USA) following the instructions of the manufacturer. […] The reaction was then started by the addition of substrate/ATP for 60 min at room temperature. Subsequently, ADP-Glo™ reagent was added and incubated for 40 min prior to kinase detection reagent addition. After 30 min, the luminescence was measured with a Tecan plate reader (Tecan Infinite® M200). Raw data were normalized to the values of control wells and luminescence values for each drug dose were expressed as a percentage of the luminescence of control untreated wells. […] The evaluation was based on means from at least three independent experiments.

[5] = test system: PSN-1 cells; assay: ROS production (CM-H2DCFDA); assay type: cell-based, human; conditions: 5 µM test compounds, antimycin 3 µM as positive control
Protocol: Consistently, tested compounds, although to different extents, were effective in reducing total cellular sulfhydryl contents in PSN-1-treated cells (Figure 9B).
The production of ROS was measured in PSN-1 cells (10^4 per well) grown for 24 h in a 96-well plate in RPMI medium without phenol red (Sigma Aldrich, Germany). Cells were then washed with PBS and loaded with 10 μM 5-(and-6)-chloromethyl-2′,7′-dichlorodihydrofluorescein diacetate acetylester (CM–H2DCFDA) (Molecular Probes-Invitrogen, Eugene, OR, USA) for 45 min, in the dark. Afterward, cells were washed with PBS and incubated with tested compounds. Fluorescence increase was estimated utilizing the wavelengths of 485 nm (excitation) and 527 nm (emission) in a VICTOR X3 (PerkinElmer, USA) plate reader. Antimycin (3 μM, Sigma Aldrich), a potent inhibitor of Complex III in the electron transport chain, was used as the positive control.

[6] = test system: PSN-1 cells; assay: 3D spheroid cytotoxicity, acid phosphatase (APH) assay, PSN-1; conditions: read-out: IC50 ±S.D. PSN-1 (3D cytotoxicity); spheroids, 72 h, APH test
Protocol: (§6) The PDAC cancer spheroids were treated with tested compounds for 72 h, and cell viability was assessed by means of the acid phosphatase (APH) assay (Table 3).
(§7) An APH-modified assay was used for determining cell viability in 3D spheroids, as previously described [61]. Briefly, the pre-seeded spheroids were treated with fresh medium containing the compound to be studied at the appropriate concentration (range 2.5–200 μM). Triplicate cultures were established for each treatment. After 72 h, each well was treated with 100 μL of the assay buffer (0.1 M sodium acetate, 0.1% Triton-X-100, supplemented with ImmunoPure p-nitrophenyl phosphate; Sigma Chemical Co., Ltd.) and, following 3 h of incubation, 10 μL of 1 M NaOH solution was added. […] The mean absorbance for each drug dose was expressed as a percentage of the control untreated well absorbance (T/C) and plotted vs. drug concentration. […] The evaluation was based on means from at least four independent experiments.

[7] = test system: BxPC-3 cells; assay: 3D spheroid cytotoxicity, acid phosphatase (APH) assay, BxPC-3; conditions: read-out: IC50 ±S.D. BxPC-3 (3D cytotoxicity); spheroids, 72 h, APH test
Protocol: as §6, §7

[8] = test system: PSN-1 cells; assay: Cellular oxygen consumption (Mito-ID Extracellular O2 Sensor Kit); assay type: cell-based, human; conditions: IC50 concentrations
Protocol: (§1) Cells were treated with DAP or representative compounds at IC50 concentrations and the changes in OCR and in the intracellular lactate formation were monitored.
PSN-1 cells (2 × 10^5) were seeded in a six-well plate in growth medium (4 mL). After 24 h, cells were incubated for 60 min with IC50 concentrations of tested compounds. Subsequently, oxygen consumption was assessed by Mito-ID® Extracellular O2 Sensor Kit according to manufacturer’s instructions. Fluorescence was measured using a Tecan microplate reader (Ex 340–400 nm, Em 630–680 nm).

[9] = test system: PSN-1 cells; assay: Cellular lactate production; assay type: cell-based, human; conditions: IC50 concentrations
Protocol: as §1
PSN-1 cells (2 × 10^5) were seeded in a six-well plate in a growth medium (4 mL). After 24 h, cells were incubated for 60 min with IC50 concentrations of tested compounds. Changes in lactate production were assessed via colorimetric microplate assay (Lactate assay kit®, Merk, St. Louis, MO, USA) according to the manufacturer’s instructions. The intracellular lactate concentration was detected by measuring the absorbance of each well at 570 nm, using a Bio-Rad 680 microplate reader.

[10] = test system: caspase-3 and -8 in PSN-1 cells; assay: Caspase-3 and -8 activity; assay type: cell-based, human; conditions: 24 h, IC50 doses
Protocol: Apoptotic cell death can be triggered by a mitochondria-mediated or mitochondrial-independent pathways. In the […], caspase-8 and caspase-3 play an essential role. […] Staurosporine (STS), an alkaloid inducing apoptosis through caspase-3 and -8 activation was used as a positive control. […] Caspase-3 and -8 cleavage reached values similar to that induced by the well-known caspase-dependent apoptosis inducer staurosporine (Figure 10C).
Protein aliquots (100 μg) were stained at 37 °C for 60 min with fluorescent caspase-3 (N-acetyl-Asp-Glu-Val-Asp-AMC, AMC = 7-amino-4-methylcoumarin) or caspase-8 (Ac-Val-Glu-Thr-Asp-AMC) substrates. Substrate hydrolysis was measured after 60 min by monitoring the release of AMC using a a Tecan microplate reader (excitation at 370 nm, emission at 460 nm).

[11] = test system: PSN-1 cells; assay: TEM analysis of mitochondria; assay type: cell-based, human; conditions: 24 h, IC50 concentrations
Protocol: In addition, TEM analyses were performed on PSN-1 cancer cells after 24 h treatment with IC50 concentrations of the representative compounds 5i and 6h.
About 10^6 PSN-1 cancer cells were seeded in 24-well plates and, after 24 h incubation, were treated with IC50 concentrations of tested compounds and incubated for an additional 24 h. Cells were then washed with cold PBS, harvested, and directly fixed with 1.5% glutaraldehyde buffer with 0.2 M sodium cacodylate, pH 7.4. After washing with buffer and postfixation with 1% OsO4 in 0.2 M cacodylate buffer, specimens were dehydrated and embedded in epoxy resin (Epon Araldite). Sagittal serial sections (1 μm) were counterstained with toluidine blue; thin sections (90 nm) were given contrast by staining with uranyl acetate and lead citrate. Micrographs were taken with a Hitachi H-600 electron microscope (Hitachi, Tokyo, Japan) operating at 75 kV. All photos were typeset in Corel Draw 11.

[12] = test system: PSN-1 cells; assay: Cell death induction, Hoechst 33258 staining; assay type: cell-based, human; conditions: 48 h, IC50 doses
Protocol: As a last mechanistic evaluation, the ability of selected compounds 5i and 6h to induce cancer cell death by means of apoptosis, was also assessed.
PSN-1 cells were seeded into 8-well tissue-culture slides (BD Falcon, Bedford, MA, USA) at 5 × 10^4 cells/well (0.8 cm^2). […] Samples were examined at 5× and 40× magnification in a Zeiss LSM 800 confocal microscope using the Zeiss ZEN 2.3 software system (Zeiss, Oberkochen, Germany).

[13] = target: recombinant human PDK4 (Homo sapiens, UniProt Q16654); assay: ADP-Glo kinase assay, PDK4; conditions: 1.5 µM compound
recombinant human PDK4, sequence (Q16654 whole entry): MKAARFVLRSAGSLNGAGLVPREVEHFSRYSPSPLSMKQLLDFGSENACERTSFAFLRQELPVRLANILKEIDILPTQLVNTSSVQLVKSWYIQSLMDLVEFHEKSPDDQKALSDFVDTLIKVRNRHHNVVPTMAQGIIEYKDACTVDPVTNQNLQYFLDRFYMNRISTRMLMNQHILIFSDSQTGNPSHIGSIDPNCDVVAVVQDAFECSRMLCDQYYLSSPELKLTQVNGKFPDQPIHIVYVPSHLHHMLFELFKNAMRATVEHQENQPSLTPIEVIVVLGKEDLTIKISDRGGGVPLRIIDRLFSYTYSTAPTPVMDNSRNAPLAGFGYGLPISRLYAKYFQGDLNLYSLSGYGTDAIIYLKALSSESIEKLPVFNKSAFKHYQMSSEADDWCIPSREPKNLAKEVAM
Protocol: as §4, §5

[14] = test system: PSN-1 cells; assay: 2D cytotoxicity, MTT assay, PSN-1; assay type: cell-based; conditions: Homo sapiens, PSN1, 72 h, 72 h, MTT test, KRAS-mutant PSN-1; read-out: IC50 ±S.D. PSN-1 (2D cytotoxicity)
Protocol: (§2) All newly synthesized compounds were then screened for their cytotoxic activity against two human PDAC cell lines, namely a KRAS-wild-type PDAC cell line (BxPC-3 cells) and a KRAS-mutant PDAC cell line (PSN-1 cells). […] The cytotoxicity parameters, expressed in terms of IC50 and obtained after 72 h of drug exposure by MTT assay, are listed in the Supplementary Materials (Table S2).
(§3) The growth inhibitory effect on tumor cells was evaluated by means of the MTT assay. Briefly, 3–8 × 10^3 cells/well, dependent upon the growth characteristics of the cell line, were seeded in 96-well microplates in growth medium (100 μL). After 24 h, the medium was removed and replaced with a fresh one containing the compound to be studied at the appropriate concentration. Triplicate cultures were established for each treatment. After 72 h, each well was treated with 10 μL of a 5 mg/mL MTT saline solution, and following 5 h of incubation, 100 μL of a sodium dodecyl sulfate (SDS) solution in HCl 0.01 M was added. After overnight incubation, cell growth inhibition was detected by measuring the absorbance of each well at 570 nm using a Bio-Rad 680 microplate reader. The mean absorbance for each drug dose was expressed as a percentage of the control untreated well absorbance and plotted vs. drug concentration. IC50 values, the drug concentrations that reduce the mean absorbance at 570 nm to 50% of those in the untreated control wells, were calculated by the four-parameter logistic (4-PL) model. The evaluation was based on means from at least four independent experiments.

[15] = test system: BxPC-3 cells; assay: 2D cytotoxicity, MTT assay, BxPC-3; assay type: cell-based; conditions: Homo sapiens, BXPC-3, 72 h, 72 h, MTT test, KRAS-wild-type BxPC-3; read-out: IC50 ±S.D. BxPC-3 (2D cytotoxicity)
Protocol: as §2, §3

Row | decrease of HSP90 catalytic activity [2] | IC50 [4] | effect on enzymatic activity of PDK1 [4] | melting point | IC50 [2] | effect on HSP90 enzyme activity ([2]; 1.5 µM compound) | effect on PDK4 activity (ATP consumption) [13] | IC50 ([4]; read-out: IC50 ±S.D. PDK1, four-parameter logistic model, three independent experiments) | Compound | percentage of cells with hypopolarized mitochondrial membrane potential (in words) [1] | reduction in phospho-PDHA1 (S232) levels [3] | ROS basal level production / hydrogen peroxide formation [5] | IC50 [6] | IC50 [7] | cellular oxygen consumption (OCR) [8] | lactate production [9] | caspase-3 and -8 activation [10] | mitochondrial morphology (TEM) [11] | apoptosis induction (nuclear morphology) [12] | IC50 [14] | IC50 [15]
1 | 60–80% | 0.01 ± 0.003 µM | totally suppressed | 239.5 °C |  |  |  |  | COc1ccc2c(c1)c(-c1nc(N)nnc1-c1cn(C)c3ccc(F)cc13)cn2C [5k] | significantly increased | very similar to that exerted by the reference PDK inhibitor DAP | even higher than that provoked by antimycin | 15.9 ± 2.3 µM | 67.9 ± 3.7 µM | more effective than DAP | more potent than DAP |  |  |  |  | 
2 |  | 0.08 ± 0.01 µM | totally suppressed |  | 0.2 µM | completely abolish the enzyme activity |  |  | COc1ccc2c(c1)c(-c1nnc(N)nc1-c1cn(C)c3ccccc13)cn2C [6h] | significantly increased |  | increase in the ROS basal level production | 24.3 ± 1.4 µM | 33.4 ± 3.6 µM |  |  | significantly activated | dramatic swelling of the mitochondria | brightly stained nuclei and morphological features typical of cells undergoing apoptosis |  | 
3 | 60–80% |  | totally suppressed | 266 °C |  |  | completely blocked | 0.07 ± 0.02 µM | Cn1cc(-c2nnc(N)nc2-c2cn(C)c3ccccc23)c2cc(Br)ccc21 [6j] | significantly increased | very similar to that exerted by the reference PDK inhibitor DAP | even higher than that provoked by antimycin | 18.1 ± 2.3 µM | 41.2 ± 3.6 µM |  |  |  |  |  | 0.6 ± 0.1 µM | 0.2 ± 0.04 µM
